We go through 22 compounds from patent US11730720B2, “ALK5 inhibitors” (THERAVANCE BIOPHARMA R&D IP, LLC, priority 2018, dated 2023).

In assay [1] the target is T1, recombinant human ALK5 (TGF-βR1) protein (Homo sapiens, UniProt P36897).
T1 construct: purchased Life Technologies PR9075A
T1 sequence (P36897 34-503): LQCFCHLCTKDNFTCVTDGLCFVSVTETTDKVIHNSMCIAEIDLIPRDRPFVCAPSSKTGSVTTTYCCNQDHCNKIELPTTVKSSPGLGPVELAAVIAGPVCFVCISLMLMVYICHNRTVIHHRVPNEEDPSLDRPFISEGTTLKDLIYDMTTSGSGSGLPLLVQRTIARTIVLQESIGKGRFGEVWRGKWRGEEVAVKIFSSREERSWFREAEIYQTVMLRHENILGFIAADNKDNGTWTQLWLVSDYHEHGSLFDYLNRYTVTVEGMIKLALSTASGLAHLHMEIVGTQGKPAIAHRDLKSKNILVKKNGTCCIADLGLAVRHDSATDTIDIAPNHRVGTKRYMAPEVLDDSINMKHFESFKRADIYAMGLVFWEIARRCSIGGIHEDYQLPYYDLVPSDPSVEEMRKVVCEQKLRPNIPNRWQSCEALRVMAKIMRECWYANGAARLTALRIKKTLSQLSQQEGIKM
Kind of assay: Biochemical ALK5 (TGF-βR1) assay to measure pKi (LANCE Ultra ULight kinase assay). To be noted: apparent pKi, converted from pIC50 using the Cheng-Prusoff equation. The gist of the method: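 TR-FRET kinase format: compound dose range 10 μM–25 pM equilibrated 60 min with human ALK5 and ULight-labelled topoisomerase 2α peptide in HEPES/MgCl2 buffer pH 7.5 with DTT. Reaction started with ATP (125 μM stock, 5× final), 60 min at 37° C, stopped with EDTA/Eu-anti-phospho antibody; pKi derived from pIC50 via Cheng-Prusoff.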
Background: In TR-FRET formats the signal depends on donor and acceptor labels being close together.

The test system of assay [2] is TGF-β-stimulated SMAD3 phosphorylation in BEAS-2B cells. Kind of assay: Cellular ALK5 potency assay, inhibition of TGF-β stimulated pSMAD3 formation in BEAS-2B cells. Type of assay: cell-based. To be noted: Homo sapiens, inhibition of TGF-β (10 ng/mL) stimulated pSMAD3 formation, 1 hour compound incubation, read-out: BEAS2B pIC50 (converted). An outline of the steps:
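Phospho-SMAD3 was quantified by AlphaLISA in lysates of human lung epithelial BEAS-2B cells. Compound was added 1 h (37 °C, HEPES/BSA-supplemented HBSS) before a 30 min challenge with 10 ng/mL TGF-β. Values are pIC50 relative to stimulated cells without compound.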

For the compound `CNCCn1cc(-c2cnc3ccc(-c4c[nH]nc4-c4cc(Cl)ccc4F)cc3c2)cn1` [Compound 16-1, 2-(4-(6-(3-(5-chloro-2-fluorophenyl)-1H-pyrazol-4-yl)quinolin-3-yl)-1H-pyrazol-1-yl)-N-methylethan-1-amine], the Ki in assay [1] was at most 0.0316 nM. In addition, the IC50 in assay [2] is at most 20 nM.

Turning to `Fc1ccc(Cl)cc1-c1n[nH]cc1-c1ccc2ncc(-c3cn[nH]c3)cc2c1` [Compound 16-2, 6-[3-(5-chloro-2-fluoro-phenyl)-1H-pyrazol-4-yl]-3-(1H-pyrazol-4-yl)quinoline], in assay [1], the Ki was 0.0398 to 0.316 nM. For the same compound, the IC50 in assay [2] was at most 20 nM.

Turning to `CN1CCN(C2CCN(c3cnc4ccc(-c5c[nH]nc5-c5cc(Cl)ccc5F)cc4c3)CC2)CC1` [Compound 16-4, 6-[3-(5-chloro-2-fluoro-phenyl)-1H-pyrazol-4-yl]-3-[4-(4-methylpiperazin-1-yl)-1-piperidyl]quinoline], in assay [1], the Ki is 0.398 to 3.16 nM. The IC50 in assay [2] was 25.1 to 158 nM.

Consider `CC(C)N1CCN(CCNc2cnc3ccc(-c4c[nH]nc4-c4cc(Cl)ccc4F)cc3c2)CC1` [Compound 16-5, 6-(3-(5-chloro-2-fluorophenyl)-1H-pyrazol-4-yl)-N-(2-(4-isopropylpiperazin-1-yl)ethyl)quinolin-3-amine], for which the Ki in assay [1] is 0.398 to 3.16 nM. In addition, in assay [2], the IC50 is 25.1 to 158 nM.

As to `Fc1ccc(Cl)cc1-c1[nH]cnc1-c1ccc2ncc(-c3cn[nH]c3)cc2c1` [Compound 17-1, 6-(5-(5-chloro-2-fluorophenyl)-1H-imidazol-4-yl)-3-(1H-pyrazol-4-yl)quinoline], the Ki in assay [1] is 0.0398 to 0.316 nM. In addition, the IC50 in assay [2] is at most 20 nM.

With `CNCCn1cc(-c2cnc3ccc(-c4nc[nH]c4-c4cc(Cl)ccc4F)cc3c2)cn1` [Compound 17-2, 2-[4-[6-[5-(5-chloro-2-fluoro-phenyl)-1H-imidazol-4-yl]-3-quinolyl]pyrazol-1-yl]-N-methyl-ethanamine], the Ki in assay [1] was at most 0.0316 nM. Also, the IC50 in assay [2] is 25.1 to 158 nM.

As for `CC(C)N1CCN(CCNc2cnc3ccc(-c4nc[nH]c4-c4cc(Cl)ccc4F)cc3c2)CC1` [Compound 17-3, 6-(5-(5-chloro-2-fluorophenyl)-1H-imidazol-4-yl)-N-(2-(4-isopropylpiperazin-1-yl)ethyl)quinolin-3-amine], the Ki in assay [1] was 0.398 to 3.16 nM. Besides, the IC50 in assay [2] was 25.1 to 158 nM.

In the case of `Fc1ccc(Cl)cc1-c1[nH]cnc1-c1ccc2ncc(N3CCNCC3)cc2c1` [Compound 17-4, 6-(5-(5-chloro-2-fluorophenyl)-1H-imidazol-4-yl)-3-(piperazin-1-yl)quinoline], the Ki in assay [1] was 0.398 to 3.16 nM. The IC50 in assay [2] was 25.1 to 158 nM.

`Fc1ccc(Cl)cc1-c1[nH]cnc1-c1ccc2ncc(N3CCCNCC3)cc2c1` [Compound 17-6, 6-[5-(5-chloro-2-fluoro-phenyl)-1H-imidazol-4-yl]-3-(1,4-diazepan-1-yl)quinoline]: the Ki in assay [1] was 0.398 to 3.16 nM. Besides, the IC50 in assay [2] is 25.1 to 158 nM.

As to `CN1CCN(C2CCN(c3cnc4ccc(-c5nc[nH]c5-c5cc(Cl)ccc5F)cc4c3)CC2)CC1` [Compound 17-7, 6-[5-(5-chloro-2-fluoro-phenyl)-1H-imidazol-4-yl]-3-[4-(4-methylpiperazin-1-yl)-1-piperidyl]quinoline], in assay [1], the Ki was 0.0398 to 0.316 nM. For the same compound, the IC50 in assay [2] was 25.1 to 158 nM.

With `Fc1ccc(Cl)cc1-c1[nH]cnc1-c1ccc2ncc(-c3cnc4n3CCN4)cc2c1` [Compound 17-9, 6-(5-(5-chloro-2-fluorophenyl)-1H-imidazol-4-yl)-3-(2,3-dihydro-1H-imidazo[1,2-a]imidazol-5-yl)quinoline], the Ki in assay [1] is 0.0398 to 0.316 nM. Besides, in assay [2], the IC50 was 25.1 to 158 nM.

For `Fc1ccc(Cl)cc1-c1[nH]cnc1-c1ccc2ncc(-c3cnc4n3CCNC4)cc2c1` [Compound 17-10, 6-[5-(5-chloro-2-fluoro-phenyl)-1H-imidazol-4-yl]-3-(5,6,7,8-tetrahydroimidazo[1,2-a]pyrazin-3-yl)quinoline], in assay [1], the Ki is 0.398 to 3.16 nM. The IC50 in assay [2] was 25.1 to 158 nM.

For `Fc1ccc(Cl)cc1-c1[nH]cnc1-c1ccc2ncc(-c3cc4n(n3)CCNC4)cc2c1` [Compound 17-11, 6-[5-(5-chloro-2-fluoro-phenyl)-1H-imidazol-4-yl]-3-(4,5,6,7-tetrahydropyrazolo[1,5-a]pyrazin-2-yl)quinoline], the Ki in assay [1] was 0.0398 to 0.316 nM. The IC50 in assay [2] was at most 20 nM.

Take `Fc1ccc(Cl)cc1-c1[nH]cnc1-c1ccc2ncc(-c3nnn4c3CNCC4)cc2c1` [Compound 17-12, 6-[5-(5-chloro-2-fluoro-phenyl)-1H-imidazol-4-yl]-3-(4,5,6,7-tetrahydrotriazolo[1,5-a]pyrazin-3-yl)quinoline]: the Ki in assay [1] is 0.398 to 3.16 nM. Besides, the IC50 in assay [2] is 25.1 to 158 nM.

Regarding `Fc1ccc(Cl)cc1-c1[nH]cnc1-c1ccc2ncc(-c3nc4n(n3)CCNC4)cc2c1` [Compound 17-13, 6-[5-(5-chloro-2-fluoro-phenyl)-1H-imidazol-4-yl]-3-(5,6,7,8-tetrahydro-[1,2,4]triazolo[1,5-a]pyrazin-2-yl)quinoline], in assay [1], the Ki is 0.0398 to 0.316 nM. Besides, in assay [2], the IC50 is at most 20 nM.

On to `Fc1ccc(Cl)cc1-c1[nH]cnc1-c1ccc2ncc(-c3cn4c(n3)CNCC4)cc2c1` [Compound 17-14, 6-[5-(5-chloro-2-fluoro-phenyl)-1H-imidazol-4-yl]-3-(5,6,7,8-tetrahydroimidazo[1,2-a]pyrazin-2-yl)quinoline], for which the Ki in assay [1] is 0.0398 to 0.316 nM. Moreover, the IC50 in assay [2] is 25.1 to 158 nM.

`CNCCn1cc(-c2cnc3ccc(-c4nn[nH]c4-c4cc(Cl)ccc4F)cc3c2)cn1` [Compound 18-1, 2-(4-(6-(5-(5-chloro-2-fluorophenyl)-1H-1,2,3-triazol-4-yl)quinolin-3-yl)-1H-pyrazol-1-yl)-N-methylethan-1-amine]: the Ki in assay [1] is at most 0.0316 nM. In assay [2], the IC50 was 25.1 to 158 nM.

On to `Fc1ccc(Cl)cc1-c1[nH]nnc1-c1ccc2ncc(-c3cn[nH]c3)cc2c1` [Compound 18-2, 6-[5-(5-chloro-2-fluoro-phenyl)-1H-triazol-4-yl]-3-(1H-pyrazol-4-yl)quinoline], for which the Ki in assay [1] was 0.0398 to 0.316 nM. The IC50 in assay [2] was at most 20 nM.

In the case of `CC(C)N1CCN(CCNc2cnc3ccc(-c4nn[nH]c4-c4cc(Cl)ccc4F)cc3c2)CC1` [Compound 18-3, 6-(5-(5-chloro-2-fluorophenyl)-1H-1,2,3-triazol-4-yl)-N-(2-(4-isopropylpiperazin-1-yl)ethyl)quinolin-3-amine], in assay [1], the Ki was 0.398 to 3.16 nM. The IC50 in assay [2] is 25.1 to 158 nM.

As to `Fc1ccc(Cl)cc1-c1[nH]nnc1-c1ccc2ncc(N3CCNCC3)cc2c1` [Compound 18-5, 6-[5-(5-chloro-2-fluoro-phenyl)-1H-triazol-4-yl]-3-piperazin-1-yl-quinoline], the Ki in assay [1] is 0.398 to 3.16 nM. Also, in assay [2], the IC50 is 25.1 to 158 nM.

As to `CN1CCN(C2CCN(c3cnc4ccc(-c5nn[nH]c5-c5cc(Cl)ccc5F)cc4c3)CC2)CC1` [Compound 18-6, 6-[5-(5-chloro-2-fluoro-phenyl)-1H-triazol-4-yl]-3-[4-(4-methylpiperazin-1-yl)-1-piperidyl]quinoline], the Ki in assay [1] is 0.398 to 3.16 nM. In assay [2], the IC50 was 25.1 to 158 nM.

For `Fc1ccc(Cl)cc1-c1[nH]nnc1-c1ccc2ncc(N3CCCNCC3)cc2c1` [Compound 18-7, 6-[5-(5-chloro-2-fluoro-phenyl)-1H-triazol-4-yl]-3-(1,4-diazepan-1-yl)quinoline], in assay [1], the Ki was 3.98 to 31.6 nM. For the same compound, the IC50 in assay [2] was 200 to 1260 nM.
